Assay [1] can be described thus: Trypanosoma cruzi growth suppression in host cells – NIH3T3 host cells, beta-gal luminescence, confirmation (AID 2044).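 Note: intracellular parasites grown in NIH/3T3 mouse fibroblasts as host cells; luminescent beta-galactosidase reporter signal from transgenic T. cruzi replicating inside host cells; inhibitors lower the luminescence signal.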 The assay is classed as functional, cell-based.
A short description of assay [2]: NIH3T3 cell viability loss – ATP luminescence, mouse fibroblasts, counter-screen, dose response (AID 2010).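 Note: cells exposed to compound for about 90 hours before reading.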 The assay is classed as functional, cell-based.
In assay [3] the target is T1, Short transient receptor potential channel 4 (Mus musculus, UniProt Q9QUQ5).
T1 sequence (Q9QUQ5 whole entry): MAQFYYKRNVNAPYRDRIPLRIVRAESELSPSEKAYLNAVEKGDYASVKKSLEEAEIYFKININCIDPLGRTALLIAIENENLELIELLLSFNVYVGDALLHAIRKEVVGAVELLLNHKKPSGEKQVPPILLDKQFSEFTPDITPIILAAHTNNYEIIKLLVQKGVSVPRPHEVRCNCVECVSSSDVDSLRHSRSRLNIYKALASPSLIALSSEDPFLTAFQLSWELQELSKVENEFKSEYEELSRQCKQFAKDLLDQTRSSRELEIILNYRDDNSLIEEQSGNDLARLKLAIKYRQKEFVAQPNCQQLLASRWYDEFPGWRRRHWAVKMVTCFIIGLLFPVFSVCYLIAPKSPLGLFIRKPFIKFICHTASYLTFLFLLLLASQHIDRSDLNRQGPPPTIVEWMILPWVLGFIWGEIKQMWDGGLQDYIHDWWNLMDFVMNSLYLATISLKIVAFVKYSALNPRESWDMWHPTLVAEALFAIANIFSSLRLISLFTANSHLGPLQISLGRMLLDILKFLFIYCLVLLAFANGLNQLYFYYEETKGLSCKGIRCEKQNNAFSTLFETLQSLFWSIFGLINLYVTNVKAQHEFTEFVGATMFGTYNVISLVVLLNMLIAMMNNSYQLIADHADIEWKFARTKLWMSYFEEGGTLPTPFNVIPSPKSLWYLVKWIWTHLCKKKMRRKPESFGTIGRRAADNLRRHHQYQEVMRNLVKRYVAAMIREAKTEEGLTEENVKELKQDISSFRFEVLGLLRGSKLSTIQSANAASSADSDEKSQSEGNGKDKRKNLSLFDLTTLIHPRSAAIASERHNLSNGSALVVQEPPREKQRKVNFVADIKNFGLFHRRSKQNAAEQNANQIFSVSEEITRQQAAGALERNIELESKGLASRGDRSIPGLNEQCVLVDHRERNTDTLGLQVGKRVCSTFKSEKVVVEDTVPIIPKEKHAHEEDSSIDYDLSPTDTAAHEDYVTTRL
Description: block of DAMGO-driven TRPC4 calcium entry – cell-based, HEK293 TRPC4/mu-opioid, Fluo-4 calcium, dose response (AID 434942).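 Note: potency of inhibitors blocking the TRPC4 calcium response.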 It counts as functional.

Assay [4] concerns the target T2, Heat shock factor protein 1 (Mus musculus, UniProt P38532).
T2 sequence (P38532 whole entry): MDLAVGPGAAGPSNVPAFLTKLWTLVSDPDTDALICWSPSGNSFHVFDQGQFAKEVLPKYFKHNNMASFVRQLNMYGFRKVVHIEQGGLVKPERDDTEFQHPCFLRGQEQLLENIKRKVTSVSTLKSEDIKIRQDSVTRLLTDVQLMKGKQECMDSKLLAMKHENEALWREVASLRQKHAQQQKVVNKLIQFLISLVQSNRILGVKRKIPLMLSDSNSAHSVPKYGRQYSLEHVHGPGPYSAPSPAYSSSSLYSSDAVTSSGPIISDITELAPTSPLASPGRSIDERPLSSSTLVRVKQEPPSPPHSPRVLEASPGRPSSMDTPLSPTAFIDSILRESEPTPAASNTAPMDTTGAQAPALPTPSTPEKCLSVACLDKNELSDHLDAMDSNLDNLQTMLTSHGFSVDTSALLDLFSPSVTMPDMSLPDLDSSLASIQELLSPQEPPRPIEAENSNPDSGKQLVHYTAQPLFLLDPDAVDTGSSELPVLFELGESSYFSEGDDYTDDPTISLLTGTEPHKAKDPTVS
Nature of the assay: enhancement of HSF1-driven luciferase signal – cell-based, NIH3T3, luminescence, dose retest, confirmation (AID 435004).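 Note: stress induced by proteasome inhibitor MG132 added 30 min after compound; luciferase reporter driven by HSF1 response element in NIH3T3 cells; actives raise luminescence as potentiators of the MG132 stress response.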 The assay is classed as functional.

The nature of assay [5]: P. falciparum Dd2 growth inhibitors, dose response, SYBR Green, cherry-picked samples (AID 1159567). It counts as functional, cell-based.
For a further assay, the target named is Large T antigen (Simian virus 40, UniProt P03070). It counts as functional, Betapolyomavirus macacae.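 Note: Confirmatory-stage PubChem screen for compounds that inhibit SV40 T antigen.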
Assay [6] has as its target T3, Rac GTPase-activating protein 1 (Homo sapiens, UniProt Q9H0H5).
T3 sequence (Q9H0H5 whole entry): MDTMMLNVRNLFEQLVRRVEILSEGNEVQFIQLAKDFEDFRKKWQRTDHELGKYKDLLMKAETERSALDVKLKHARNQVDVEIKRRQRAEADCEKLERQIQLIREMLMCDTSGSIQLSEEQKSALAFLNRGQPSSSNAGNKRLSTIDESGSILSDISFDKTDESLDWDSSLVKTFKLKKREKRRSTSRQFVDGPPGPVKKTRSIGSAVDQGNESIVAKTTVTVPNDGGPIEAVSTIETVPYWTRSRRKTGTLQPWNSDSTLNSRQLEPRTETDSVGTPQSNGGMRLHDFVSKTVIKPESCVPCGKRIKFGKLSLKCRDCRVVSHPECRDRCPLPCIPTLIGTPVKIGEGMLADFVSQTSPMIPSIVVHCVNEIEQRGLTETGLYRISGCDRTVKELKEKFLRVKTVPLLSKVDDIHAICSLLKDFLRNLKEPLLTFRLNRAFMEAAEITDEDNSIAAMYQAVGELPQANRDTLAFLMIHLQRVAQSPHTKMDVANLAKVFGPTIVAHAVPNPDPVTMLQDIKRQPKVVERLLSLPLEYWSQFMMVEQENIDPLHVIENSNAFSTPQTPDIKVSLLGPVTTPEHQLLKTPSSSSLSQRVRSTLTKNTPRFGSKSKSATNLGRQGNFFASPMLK
Description: blockers of MgcRacGAP-driven Rac1 GTP hydrolysis – biochemical, ADP Hunter fluorescence, primary and confirmatory, confirmation (AID 624330). It counts as functional.

The nature of assay [7]: blockers of HIV-1 envelope-mediated cell-cell fusion – cherry-pick, dose response (AID 652057). The assay is classed as functional, cell-based.
The nature of assay [8]: HIV-1 AD8 envelope cell-cell fusion blockers – cherry-pick, dose response (AID 652062).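 Note: luciferase signal from cell-cell fusion driven by HIV-1 clade B AD8 Env; potency is for inhibitors of fusion seen as a drop in luminescence.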 It counts as functional, cell-based.
The nature of assay [9]: NIH-3T3 fibroblast cytotoxicity, dose response, cytotoxicity control, cell-based, fluorescence, Alamar Blue, secondary assay (AID 2327).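 Note: NIH-3T3 mouse fibroblasts cultured with fluconazole at 8 µg/mL.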 The assay is classed as functional.
Another assay concerns the target Paired box protein Pax-8 (Homo sapiens, UniProt Q06710). Nature of the assay: PAX8 transcriptional activity inhibition in RMG-I – RMG-I cells, luciferase, cherry-pick, dose response (AID 687027).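 Note: luciferase reporter driven by Pax8 target thyroperoxidase promoter measured by SteadyGlo luminescence.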 The assay is classed as functional, cell-based.
In assay [10] the target is Induced myeloid leukemia cell differentiation protein Mcl-1 (Homo sapiens, UniProt Q07820). It counts as functional.
The target of another assay is Cytochrome P450 2C19 (Homo sapiens, UniProt P33261). Nature of the assay: Cytochrome panel assay with activity outcomes. Panel member name: p450-cyp2c19 Compounds with AC50 equal or less than 10 uM are considered active. It counts as functional. Particulars: read-out: AC50.
Assay [11] has as its target Luciferin 4-monooxygenase (Photinus pyralis, UniProt P08659). Description: inhibition of purified Photinus pyralis luciferase – biochemical, luminescence, dose response (AID 1891).
The nature of assay [12]: Luminescence Cell-Based Dose Confirmation HTS to Identify Inhibitors of Platelet Dense Granule Release. [Related pubchem assays: 1663 (Primary HTS), 1678 (Summary of Project)]. The assay is classed as functional.
The target in the next assay is T4, Protein skinhead-1 (Caenorhabditis elegans, UniProt P34707).
T4 sequence (P34707 whole entry): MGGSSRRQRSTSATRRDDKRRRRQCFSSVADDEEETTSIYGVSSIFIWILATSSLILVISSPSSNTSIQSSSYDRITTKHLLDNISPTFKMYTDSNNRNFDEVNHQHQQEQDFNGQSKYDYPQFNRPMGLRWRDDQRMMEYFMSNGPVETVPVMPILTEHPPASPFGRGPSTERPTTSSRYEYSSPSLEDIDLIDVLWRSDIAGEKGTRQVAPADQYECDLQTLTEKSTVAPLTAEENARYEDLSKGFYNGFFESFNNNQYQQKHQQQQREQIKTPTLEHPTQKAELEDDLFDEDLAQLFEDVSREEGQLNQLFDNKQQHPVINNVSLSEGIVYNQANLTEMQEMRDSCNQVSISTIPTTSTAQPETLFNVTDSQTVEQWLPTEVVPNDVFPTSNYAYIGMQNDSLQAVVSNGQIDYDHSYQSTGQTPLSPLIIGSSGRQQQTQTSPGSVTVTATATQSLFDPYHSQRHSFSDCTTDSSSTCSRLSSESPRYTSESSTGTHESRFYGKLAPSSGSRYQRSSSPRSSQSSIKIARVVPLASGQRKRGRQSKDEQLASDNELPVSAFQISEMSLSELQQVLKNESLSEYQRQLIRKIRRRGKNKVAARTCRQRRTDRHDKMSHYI
It counts as functional.

The nature of assay [13]: reduction of Shn3 3'UTR-driven luciferase in osteoblasts – cell-based, Clone20 osteoblasts, firefly luciferase, cherry-picked, dose response (AID 624132).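 Note: firefly luciferase luminescence from reporter carrying the Shn3 3'UTR in osteoblasts.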 It counts as functional.
A short description of assay [14]: non-specific 3'UTR reporter inhibition in Clone20-Shn3RL – cell-based, Renilla luciferase, cherry-picked, counter-screen for Shn3 inhibitor project, dose response (AID 624133). It counts as functional.

The structures appear in SMILES notation. Calls of active or inactive are those of the source.

Sequence of Large T antigen (P03070 whole entry): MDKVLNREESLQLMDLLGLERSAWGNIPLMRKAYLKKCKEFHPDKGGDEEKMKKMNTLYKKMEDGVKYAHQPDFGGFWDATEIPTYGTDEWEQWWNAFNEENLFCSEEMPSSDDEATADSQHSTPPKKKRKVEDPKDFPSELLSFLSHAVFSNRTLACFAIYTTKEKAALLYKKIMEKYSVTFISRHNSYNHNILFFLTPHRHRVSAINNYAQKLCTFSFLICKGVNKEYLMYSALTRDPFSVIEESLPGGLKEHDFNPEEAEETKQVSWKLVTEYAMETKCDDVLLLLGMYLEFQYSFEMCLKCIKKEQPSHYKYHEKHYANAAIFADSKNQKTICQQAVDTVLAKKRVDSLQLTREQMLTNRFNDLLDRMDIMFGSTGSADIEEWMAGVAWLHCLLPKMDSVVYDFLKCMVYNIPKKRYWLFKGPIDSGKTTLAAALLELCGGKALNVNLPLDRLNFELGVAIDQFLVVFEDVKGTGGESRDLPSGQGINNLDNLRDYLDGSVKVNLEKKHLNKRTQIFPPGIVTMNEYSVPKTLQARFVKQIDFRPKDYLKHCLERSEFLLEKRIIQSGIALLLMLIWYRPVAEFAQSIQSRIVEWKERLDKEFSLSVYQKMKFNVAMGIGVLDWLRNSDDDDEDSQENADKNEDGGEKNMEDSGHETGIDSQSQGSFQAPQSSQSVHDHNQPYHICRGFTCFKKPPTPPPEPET
Sequence of Induced myeloid leukemia cell differentiation protein Mcl-1 (Q07820 whole entry): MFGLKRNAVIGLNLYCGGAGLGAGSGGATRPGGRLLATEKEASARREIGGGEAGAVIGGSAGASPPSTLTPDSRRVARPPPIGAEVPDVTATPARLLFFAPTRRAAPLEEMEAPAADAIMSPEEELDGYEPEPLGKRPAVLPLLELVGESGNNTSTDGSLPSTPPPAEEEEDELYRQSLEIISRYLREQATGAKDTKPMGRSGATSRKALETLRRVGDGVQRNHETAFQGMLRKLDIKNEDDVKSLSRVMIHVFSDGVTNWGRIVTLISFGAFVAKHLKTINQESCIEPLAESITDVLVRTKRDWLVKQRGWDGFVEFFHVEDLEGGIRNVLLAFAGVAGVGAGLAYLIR
Sequence of Cytochrome P450 2C19 (P33261 whole entry): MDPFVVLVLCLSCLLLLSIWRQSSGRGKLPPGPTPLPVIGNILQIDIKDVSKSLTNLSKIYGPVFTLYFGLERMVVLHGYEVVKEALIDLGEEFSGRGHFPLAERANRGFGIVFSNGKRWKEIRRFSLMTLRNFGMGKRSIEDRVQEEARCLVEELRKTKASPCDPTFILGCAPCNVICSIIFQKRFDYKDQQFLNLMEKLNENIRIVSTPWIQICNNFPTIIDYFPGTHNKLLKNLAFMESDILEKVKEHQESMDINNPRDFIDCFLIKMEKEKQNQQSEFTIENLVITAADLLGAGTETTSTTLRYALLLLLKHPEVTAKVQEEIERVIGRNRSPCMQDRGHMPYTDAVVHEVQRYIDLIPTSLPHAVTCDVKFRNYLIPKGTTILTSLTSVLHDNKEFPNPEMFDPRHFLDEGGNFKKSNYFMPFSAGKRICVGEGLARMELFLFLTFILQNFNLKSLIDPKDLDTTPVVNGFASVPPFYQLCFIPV
Sequence of Luciferin 4-monooxygenase (P08659 whole entry): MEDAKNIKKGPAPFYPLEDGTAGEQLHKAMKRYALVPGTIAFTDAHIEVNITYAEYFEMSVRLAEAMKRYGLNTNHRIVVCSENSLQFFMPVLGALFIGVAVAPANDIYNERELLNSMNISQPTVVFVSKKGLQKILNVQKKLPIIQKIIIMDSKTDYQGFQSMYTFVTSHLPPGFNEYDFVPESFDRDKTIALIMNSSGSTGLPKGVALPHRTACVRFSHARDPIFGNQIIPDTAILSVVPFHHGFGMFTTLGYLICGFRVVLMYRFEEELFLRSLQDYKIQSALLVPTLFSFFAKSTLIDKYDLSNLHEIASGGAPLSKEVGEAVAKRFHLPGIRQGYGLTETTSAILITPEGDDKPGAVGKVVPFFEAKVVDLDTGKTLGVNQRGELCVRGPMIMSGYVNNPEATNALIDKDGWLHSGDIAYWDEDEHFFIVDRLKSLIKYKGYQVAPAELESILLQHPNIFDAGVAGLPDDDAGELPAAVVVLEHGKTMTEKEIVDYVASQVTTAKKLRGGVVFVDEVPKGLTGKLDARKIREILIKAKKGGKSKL
Sequence of Paired box protein Pax-8 (Q06710 whole entry): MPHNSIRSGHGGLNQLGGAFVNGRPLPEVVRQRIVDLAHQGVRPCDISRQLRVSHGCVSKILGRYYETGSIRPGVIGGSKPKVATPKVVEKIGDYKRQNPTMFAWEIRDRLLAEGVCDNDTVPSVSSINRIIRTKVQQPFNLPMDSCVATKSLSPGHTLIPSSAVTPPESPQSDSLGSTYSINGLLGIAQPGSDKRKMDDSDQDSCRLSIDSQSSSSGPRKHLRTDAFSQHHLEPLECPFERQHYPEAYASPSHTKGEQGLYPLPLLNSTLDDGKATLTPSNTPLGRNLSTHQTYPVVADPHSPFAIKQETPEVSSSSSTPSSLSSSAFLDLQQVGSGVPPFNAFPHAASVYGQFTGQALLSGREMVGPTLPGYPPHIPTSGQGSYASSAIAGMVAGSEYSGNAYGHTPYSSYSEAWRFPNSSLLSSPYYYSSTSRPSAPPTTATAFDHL

As for `O=C(Nc1ccccc1N1CCN(C(=O)c2ccc(Cl)cc2)CC1)c1cccc([N+](=O)[O-])c1`, the EC50 is 1.34 µM (active) in assay [1], > 60 µM (not active) in [2], 0.376 µM (active) in assay [3] and > 260 µM (inactive) in [4].
`C/C=C/c1ccc([C@H]2[C@H](CO)N(S(=O)(=O)Cc3ccccc3)C23CN(C(=O)C2CCCC2)C3)cc1`: in assay [5], the AC50 is 5.3 µM (active).
As for `O=C1CCCC(O)=C1/C=N/c1ccc(O)cc1`, the IC50 on Large T antigen is 12.3 µM (active); in [6] it was 16.7 µM (active).
For the compound `COc1ccc2c3c([nH]c2c1)[C@@H](CO)N(C(=O)Nc1cccc(F)c1)CC31CN(CC2CCOCC2)C1`, the AC50 in assay [5] is 4.22 µM (active).
Take `CCCc1nc(SC2CCCC2)c2c(=O)n(C)c(=O)n(C)c2n1`: the EC50 in assay [3] is 4.73 µM (active).
Take `COc1ccc(S(=O)(=O)N(C)C[C@H]2Oc3ncc(-c4ccncc4)cc3C(=O)N([C@H](C)CO)C[C@@H]2C)cc1`: in assay [5], the AC50 was 6.55 µM (active).
On to `Cc1ccc(S(=O)(=O)N(C)C[C@@H]2Oc3ccc(NC(=O)Cc4ccccc4)cc3CC(=O)N([C@H](C)CO)C[C@@H]2C)cc1`, for which the results for the AC50 in assay [7] and in [8] were < 0.26 µM (active) and 2.32 µM (active), respectively.
Consider `CC(C)Cc1cc(CN2CCCC(CO)(Cc3cccc(Cl)c3)C2)[nH]n1` (stereo not drawn), for which, in assay [3], the EC50 is 2.11 µM (active).
Regarding `Cn1cccc1/C=N/N1CCN(Cc2ccccc2)CC1`, the IC50 on Large T antigen was 17.6 µM (active).
In the case of `CCc1ccc(CNC(=O)C2CCCN(c3nnc(C)c4c(C)n(-c5ccccc5)nc34)C2)cc1` (stereo not drawn), the EC50 in assay [9] was 14.7 µM (inconclusive). The AC50 on Paired box protein Pax-8 was 9.17 µM (active).
`CCCCCc1nc2c(O)nc3ccccc3c2o1`: the IC50 in assay [10] is listed as 28.3 µM (not active). Besides, on Cytochrome P450 2C19, the AC50 was 3.98 µM (inconclusive).
With `Cc1ccc(N/N=C/c2ccc3c(c2)OCCO3)cc1Cl`, the EC50 in assay [9] was 40.1 µM (active); in [11] it was > 112 µM (not active); in assay [12], 21 µM (active).
As for `Cc1ccc(C(=O)Nc2ccc(N3CCCC3)cc2)c(C)c1`, in [10], the IC50 is 7.06 µM (not active).
For the compound `CCn1nc(C)c(CN2CCCC(CO)(Cc3cccc(Cl)c3)C2)c1C` (stereo not drawn), the values for the EC50 in [1], in assay [2] and in assay [3] were 0.247 µM (active), > 30 µM (not active) and 1.06 µM (active), respectively.
In the case of `CC1CCN(C(C)C(=O)Nc2ccccc2-c2ccccc2)CC1` (stereo not drawn), the EC50 in [3] is 5.31 µM (active). In addition, the IC50 on Protein skinhead-1 was > 100 µM (inactive).
`CCC(=O)N(C)C[C@@H]1Oc2cc(C#Cc3ccccc3)ccc2S(=O)(=O)N([C@@H](C)CO)C[C@H]1C`: the values for the AC50 in assay [7] and in assay [8] were 26.2 µM (active) and 30.3 µM (active), respectively.
`N#C/C(=C(\O)Cc1ccccc1)c1nc2ccccc2[nH]1`: the AC50 in assay [13] was > 70 µM (inactive); in assay [14], 23.2 µM (active).
As for `COc1ccccc1C(=O)N=Nc1c(O)[nH]c2ccc([N+](=O)[O-])cc12`, in assay [10], the IC50 is 2.92 µM (active).
`CN(C)c1ccc(C(=O)c2ccc(N(C)C)c(N)c2)cc1N`: the IC50 at Large T antigen was 19.3 µM (active).
Take `Cc1ccc(C(=O)C2=C(O)C(=O)N(Cc3cccnc3)C2c2ccc(Cl)c(Cl)c2)o1` (stereo not drawn): in assay [3], the EC50 is 6.68 µM (active).
As for `O=S(=O)(c1ccc(NC(=S)N2CCN(c3ccc(O)cc3)CC2)cc1)N1CCOCC1`, the IC50 on Large T antigen was 9.69 µM (active).
The same measure, in the same setting: as for `CC/C(=N\c1ccccc1O)C1=C(O)CC(c2ccccc2)CC1=O` (stereo not drawn), the figure is 15.2 µM (active).
Regarding `Cc1cccc(NC(=O)CN2C(=O)N/C(=C/c3ccc(C)o3)C2=O)c1`, in assay [10], the IC50 was < 0.4 µM (not active).
Regarding `COc1ccc(C#Cc2ccc3c(c2)[C@@H]2[C@@H](CCN2C(=O)C2CCC2)[C@H](CO)N3)cc1`, the AC50 in assay [5] was 5.78 µM (active).

The record behind these values is ChEMBL document CHEMBL1201862, “PubChem BioAssay data set” (2004).
